The source made the active and inactive calls.
Key:
[1] = molecular target: Induced myeloid leukemia cell differentiation protein Mcl-1 (Homo sapiens, UniProt Q07820); assay type: functional
[2] = molecular target: T1, Dual specificity protein phosphatase 3 (Homo sapiens, UniProt P51452); assay: VHR1 phosphatase inhibitors, biochemical (AID 1878)
[3] = molecular target: T1, Dual specificity protein phosphatase 3; assay: VHR1 phosphatase inhibitors, primary screen, biochemical, absorbance, uHTS (AID 1654)
[4] = molecular target: Dual specificity protein phosphatase 6 (Rattus norvegicus, UniProt Q64346); assay: MKP-3 phosphatase inhibitors, primary screen, biochemical, rat enzyme, in vitro (AID 425)
[5] = cytotoxicity toward NIH3T3 fibroblasts, dose response, counter-screen, cell-based, ATP luminescence, mouse fibroblasts (AID 2010); assay type: functional;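 also: cells exposed to compound for about 90 hours before reading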
Beta-galactosidase [6] = molecular target: T2, Beta-galactosidase (Escherichia coli, UniProt Q8VNN2); assay: PubChem AID 485352; assay type: functional
[7] = cytotoxicity in MIN6 insulinoma cells, dose response, cytotoxicity control, cell-based, mouse insulinoma (AID 2122); assay type: functional;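 also: confirmatory high-throughput counterscreen run to flag cytotoxic compounds; mouse MIN-6 beta cells carrying an insulin promoter eGFP reporter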
Hexokinase HKDC1 = molecular target: T3, Hexokinase HKDC1 (Homo sapiens, UniProt Q2TB90); assay: HKDC1 hexokinase activators, dose response, biochemical, W721R variant (AID 504730); assay type: functional
T3 sequence (Q2TB90 whole entry): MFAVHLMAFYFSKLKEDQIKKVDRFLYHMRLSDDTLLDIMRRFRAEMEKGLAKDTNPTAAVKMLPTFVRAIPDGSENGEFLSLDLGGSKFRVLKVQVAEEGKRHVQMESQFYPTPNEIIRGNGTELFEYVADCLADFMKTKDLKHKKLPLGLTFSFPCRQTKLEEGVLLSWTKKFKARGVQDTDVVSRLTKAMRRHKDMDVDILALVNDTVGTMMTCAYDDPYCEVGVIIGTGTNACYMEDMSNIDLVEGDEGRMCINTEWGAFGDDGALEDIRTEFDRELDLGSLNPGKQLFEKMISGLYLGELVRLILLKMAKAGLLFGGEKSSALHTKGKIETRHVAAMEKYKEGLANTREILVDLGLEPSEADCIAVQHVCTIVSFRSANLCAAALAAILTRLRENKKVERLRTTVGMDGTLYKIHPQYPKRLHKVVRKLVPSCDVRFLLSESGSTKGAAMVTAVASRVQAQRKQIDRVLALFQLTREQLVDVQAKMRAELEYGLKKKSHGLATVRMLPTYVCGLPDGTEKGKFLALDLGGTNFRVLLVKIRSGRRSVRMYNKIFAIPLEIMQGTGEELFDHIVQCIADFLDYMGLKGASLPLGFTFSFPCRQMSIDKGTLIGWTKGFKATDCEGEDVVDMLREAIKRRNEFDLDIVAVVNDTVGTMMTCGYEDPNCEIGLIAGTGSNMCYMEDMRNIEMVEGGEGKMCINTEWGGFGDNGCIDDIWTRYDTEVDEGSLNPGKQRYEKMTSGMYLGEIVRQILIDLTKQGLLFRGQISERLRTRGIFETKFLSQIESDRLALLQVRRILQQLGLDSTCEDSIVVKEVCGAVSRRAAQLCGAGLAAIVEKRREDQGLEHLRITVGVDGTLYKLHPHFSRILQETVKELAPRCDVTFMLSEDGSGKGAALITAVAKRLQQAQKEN

[8] = insulin promoter down-regulators in MIN6 cells, imaging, high-content screening, mouse beta cells (AID 1628); assay type: functional
[9] = inhibitors of intracellular T. cruzi replication, confirmation, NIH3T3 host cells, beta-gal luminescence (AID 2044); assay type: functional, cell-based;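 also: intracellular parasites grown in NIH/3T3 mouse fibroblasts as host cells; luminescent beta-galactosidase reporter signal from transgenic T. cruzi replicating inside host cells; inhibitors lower the luminescence signal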
[10] = molecular target: T4, Type-1 angiotensin II receptor (Homo sapiens, UniProt P30556); assay: AT1 receptor antagonists, dose response, selectivity assay for APJ receptor antagonist project, cell-based, uHTS hits (AID 463214); assay type: functional;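 also: antagonist potency against angiotensin II stimulated AT1 response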
T4 sequence (P30556 whole entry): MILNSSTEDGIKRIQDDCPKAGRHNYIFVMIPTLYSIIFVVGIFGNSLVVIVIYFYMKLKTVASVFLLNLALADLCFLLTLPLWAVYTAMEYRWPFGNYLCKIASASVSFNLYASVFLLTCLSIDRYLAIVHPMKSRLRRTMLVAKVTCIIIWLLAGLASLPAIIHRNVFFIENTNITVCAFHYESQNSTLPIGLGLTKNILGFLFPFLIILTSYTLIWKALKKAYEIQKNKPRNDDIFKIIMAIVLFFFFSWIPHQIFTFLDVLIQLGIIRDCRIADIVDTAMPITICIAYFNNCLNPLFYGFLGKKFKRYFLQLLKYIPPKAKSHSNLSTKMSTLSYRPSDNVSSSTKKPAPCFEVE

Hexokinase-1 = Hexokinase-1 (Homo sapiens, UniProt P19367); assay: hexokinase 1 activators, dose response, selectivity assay for HKDC1 activator project, biochemical (AID 504762); assay type: functional
Beta-galactosidase [11] = molecular target: T2, Beta-galactosidase; assay type: functional
[12] = molecular target: T5, Delta-type opioid receptor (Homo sapiens, UniProt P41143); assay: HTS Image-Based Screen for Antagonists of the DOR Receptor. [Related pubchem assays (depositor defined):AID1777, AID1785, AID1786, AID2133]; assay type: functional
[13] = molecular target: T6, Kappa-type opioid receptor (Homo sapiens, UniProt P41145); assay: kappa opioid receptor blockers, cell-based, luminescence, beta-arrestin, SAR follow-up (AID 2285); assay type: functional
[14] = molecular target: T6, Kappa-type opioid receptor; assay type: functional
[15] = molecular target: T5, Delta-type opioid receptor; assay: DOR agonists, SAR follow-up, image-based (AID 2370); assay type: functional
[16] = molecular target: T5, Delta-type opioid receptor; assay: HTS Image-Based Screen for Agonists of the DOR Receptor. [Related pubchem assays (depositor defined):AID1777, AID1786, AID2133]; assay type: functional
[17] = molecular target: T5, Delta-type opioid receptor; assay: DOR antagonists, SAR follow-up, image-based (AID 2357); assay type: functional
Mu-type opioid receptor [18] = molecular target: T7, Mu-type opioid receptor (Homo sapiens, UniProt P35372); assay: MOR antagonists, SAR follow-up, image-based (AID 2420); assay type: functional;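 also: compounds added before stimulation of receptor with agonist DAMGO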
[19] = molecular target: T6, Kappa-type opioid receptor; assay type: functional; remark: listed apart in the source
Mu-type opioid receptor [20] = molecular target: T7, Mu-type opioid receptor; assay: MOR agonists by imaging, SAR follow-up, image-based (AID 2352); assay type: functional
Mu-type opioid receptor [21] = molecular target: T7, Mu-type opioid receptor; assay: HTS Image-Based Screen for Agonists of the MOR Receptor. [Related pubchem assays (depositor defined):AID1777, AID1785, AID1786, AID2133]; assay type: functional
[22] = molecular target: T6, Kappa-type opioid receptor; assay: KOR antagonists by imaging, SAR follow-up, image-based (AID 2348); assay type: functional
[23] = molecular target: T6, Kappa-type opioid receptor; assay: KOR agonist analogs, imaging readout, SAR follow-up, image-based (AID 2359); assay type: functional
Albumin = Albumin (Bos taurus, UniProt P02769); assay: Counterscreen for inhibitors of T-cell receptor (TCR)-CD3 interaction: Fluorescence-based biochemical high throughput dose response assay to identify inhibitors of T-cell receptor (TCR)-CD3 interaction using a TAMRA-labeled BSA probe.; assay type: functional
SUMO-activating enzyme [24] = molecular target: T8, SUMO-activating enzyme (Homo sapiens, UniProt Q9UBT2); assay: inhibitors of in vitro SUMOylation cascade, primary screen, biochemical, HTRF, uHTS (AID 2006); assay type: protein-complex assay
SUMO-activating enzyme [25] = molecular target: T8, SUMO-activating enzyme; assay: SUMOylation inhibitor hit validation, confirmation, SUMOylation inhibitor project, biochemical, AlphaScreen (AID 2018); assay type: functional
[26] = system: Streptococcus sp. 'group A'; assay: growth inhibition of control SK(-) GAS strain, dose response, counter-screen for streptokinase expression inhibitor project, luminescence, kanamycin, BacTiterGlo, confirmation (AID 1900); assay type: functional, organism-based
[27] = Luminescence Cell-Based Dose Retest to Confirm Inhibitors of Cancer Stem Cells. [Related pubchem assays (depositor defined):AID2717, AID2721]; assay type: functional; settings: Homo sapiens
INS1 = assay: beta cell apoptosis inhibitors, cytokine rescue, dose response, luminescence, retest (AID 449756); assay type: functional, cell-based; settings: Rattus norvegicus;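 also: cell death triggered by IL-1 beta plus TNF-alpha plus IFN-gamma mixture; protective hits raise ATP signal compared with cytokine alone wells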
cells [28] = assay type: functional, cell-based
Streptococcus = assay: Group A Streptococcus viability loss, dose response, counter-screen for streptokinase expression inhibitor project, luminescence, BacTiterGlo (AID 1915); assay type: functional, organism-based;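 also: potency for reduction of bacterial viability or growth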
cells [29] = assay type: functional, cell-based; remark: listed apart in the source
Troponin, cardiac muscle = Troponin, cardiac muscle (Homo sapiens, UniProt P19429+P45379+P63316); assay: Fluorescence-based biochemical high throughput dose response assay for activators of the calcium sensitivity of cardiac Regulated Thin Filaments (RTF). [Related pubchem assays (depositor defined):AID493008, AID493018, AID504382, AID504383]; assay type: protein-complex assay
[30] = molecular target: T9, RNA-binding protein pos-1 (Caenorhabditis elegans, UniProt G5EF15); assay: inhibitors of POS-1/mex-3 RNA binding, dose response, biochemical, fluorescence polarization (AID 1964);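 also: purified POS-1 fused to maltose binding protein made in E. coli; potency of compounds blocking POS-1 binding to fluorescent RNA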
T9 sequence (G5EF15 whole entry): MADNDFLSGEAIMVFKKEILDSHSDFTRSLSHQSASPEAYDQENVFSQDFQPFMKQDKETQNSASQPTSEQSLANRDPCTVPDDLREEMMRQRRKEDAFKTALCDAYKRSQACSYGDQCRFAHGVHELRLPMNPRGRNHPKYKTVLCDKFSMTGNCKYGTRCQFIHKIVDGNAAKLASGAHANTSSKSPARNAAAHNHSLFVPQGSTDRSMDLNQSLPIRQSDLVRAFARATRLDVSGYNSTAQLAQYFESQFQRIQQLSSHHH

[31] = molecular target: T10, Zinc finger protein mex-5 (Caenorhabditis elegans, UniProt Q9XUB2); assay: MEX-5/TCR-2 RNA interaction inhibitors, dose response, biochemical, C. elegans, fluorescence polarization (AID 1960)
T10 sequence (Q9XUB2 whole entry): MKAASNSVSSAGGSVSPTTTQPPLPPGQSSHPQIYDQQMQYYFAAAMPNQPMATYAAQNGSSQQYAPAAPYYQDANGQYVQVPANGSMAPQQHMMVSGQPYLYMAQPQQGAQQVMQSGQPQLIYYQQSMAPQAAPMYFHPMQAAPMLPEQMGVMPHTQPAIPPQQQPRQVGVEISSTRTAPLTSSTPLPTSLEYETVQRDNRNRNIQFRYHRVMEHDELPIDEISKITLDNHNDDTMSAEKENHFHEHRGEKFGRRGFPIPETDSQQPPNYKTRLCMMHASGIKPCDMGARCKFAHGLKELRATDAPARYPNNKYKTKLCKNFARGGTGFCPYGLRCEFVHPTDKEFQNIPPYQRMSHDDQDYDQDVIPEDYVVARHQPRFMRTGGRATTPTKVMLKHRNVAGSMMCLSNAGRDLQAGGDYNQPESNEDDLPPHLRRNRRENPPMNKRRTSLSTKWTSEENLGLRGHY

[32] = molecular target: T11, Runt-related transcription factor 1/Core-binding factor subunit beta (Homo sapiens, UniProt Q01196+Q13951); assay: inhibitors of RUNX1 Runt–CBFb-SMMHC binding, primary screen, biochemical, FRET, Cerulean-Runt, Venus-CBFb-SMMHC, uHTS (AID 1434); assay type: protein assay;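 also: partner is the CBFb-SMMHC leukemia fusion protein rather than wild-type CBFb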
[33] = molecular target: T11, Runt-related transcription factor 1/Core-binding factor subunit beta; assay: inhibitors of RUNX1 Runt–CBFb-SMMHC binding, biochemical, TR-FRET (AID 1438); assay type: protein assay

Cc1cc2nc(-c3ccc(SCc4ccc(C(=O)O)cc4)nc3)[nH]c2cc1C
IC50 [1]: 7.97 µM (active) | IC50 [2]: 5.73 µM (active) | IC50 [3]: 13.9 µM (active) | IC50 [4]: 25.8 µM (active)

Cc1ccc(N=Nc2ccc(O)c3ncccc23)cc1C
EC50 [5]: > 60 µM (inconclusive) | EC50 (Beta-galactosidase [6]): > 40 µM (inactive) | IC50 [7]: 1.66 µM (active) | EC50 (Hexokinase HKDC1): 21.7 µM (inactive) | IC50 [8]: 2.41 µM (active) | EC50 [9]: 1.13 µM (active) | IC50 [10]: 35.3 µM (not active) | EC50 (Hexokinase-1): > 80 µM (inactive)

CCOc1ccc(C(=O)NC2CC3CCCC(C2)N3Cc2ccccc2)cc1 (centres undefined)
EC50 (Beta-galactosidase [11]): > 31.5 µM (inactive) | IC50 [12]: > 32 µM (inactive) | IC50 [13]: > 10 µM (inactive) | IC50 [14]: 14.8 µM | EC50 [15]: > 32 µM (inactive) | EC50 [16]: > 32 µM (inactive) | IC50 [17]: > 32 µM (inactive) | IC50 (Mu-type opioid receptor [18]): > 32 µM (inactive) | IC50 [19]: 7.52 µM (active) | EC50 (Mu-type opioid receptor [20]): > 32 µM (inactive) | EC50 (Mu-type opioid receptor [21]): > 32 µM (inactive) | IC50 [22]: > 32 µM (inactive) | EC50 [23]: > 32 µM (inactive)

O=c1c2ccccc2nc(COc2ccccc2)n1/N=C/c1cc([N+](=O)[O-])ccc1O
IC50 (Albumin): > 94.1 µM (inactive) | IC50 (SUMO-activating enzyme [24]): 32.1 µM (active) | IC50 (SUMO-activating enzyme [25]): 0.99 µM (active) | EC50 [26]: 5.71 µM (active) | AC50 [27]: 10.2 µM (active) | AC50 (INS1): 3.74 µM (active) | EC50 (cells [28]): 24.3 µM (active) | EC50 (Streptococcus): 4.65 µM (active) | EC50 (cells [29]): 22.8 µM (active)

CC(=O)c1ccc2cccc3c2c1NC(C)=N3
EC50 (Troponin, cardiac muscle): 17.3 µM (inactive) | EC50 [30]: 9.79 µM (active) | EC50 [31]: 6.57 µM (active) | IC50 [32]: 3.05 µM (active) | IC50 [33]: > 100 µM (inactive)

Reference: ChEMBL document CHEMBL1201862, “PubChem BioAssay data set” (2004)
